Measured values taken from patent US9695155B2, “Herbicidal substituted pyrimidinyloxy benzene compounds” (E. I. DU PONT DE NEMOURS AND COMPANY, priority 2013, dated 2017).

Experiments:
horseweed = test: Test E postemergence; type: in vivo, Conyza canadensis
Excerpt: Seeds of plant species selected from corn (Zea mays), soybean (Glycine max), velvetleaf (Abutilon theophrasti), lambsquarters (Chenopodium album), wild poinsettia (Euphorbia heterophylla), palmer pigweed (Amaranthus palmeri), waterhemp (common waterhemp, Amaranthus rudis), surinam grass (Brachiaria decumbens), large (Lg) crabgrass (Digitaria sanguinalis), Brazilian crabgrass (Digitaria horizontalis), fall panicum (Panicum dichotomiflorum), giant foxtail (Setaria faberii), green foxtail (Setaria viridis), goosegrass (Eleusine indica), johnsongrass (Sorghum halepense), ragweed (common ragweed, Ambrosia elatior), barnyardgrass (Echinochloa crus-galli), sandbur (southern sandbur, Cenchrus echinatus), arrowleaf sida (Sida rhombifolia), Italian ryegrass (Lolium multiflorum), dayflower (Virginia (VA) dayflower, Commelina virginica), field bindweed (Convolvulus arvensis), morningglory (Ipomoea coccinea), nightshade (eastern black nightshade, Solanum ptycanthum), kochia (Kochia scoparia), yellow nutsedge (Cyperus esculentus), cocklebur (common cocklebur, Xanthium strumarium), smartweed (ladysthumb smartweed, and hairy beggarticks (Bidens pilosa), were planted into a silt loam soil and treated preemergence with test chemicals formulated in a non-phytotoxic solvent mixture which included a surfactant.
At the same time, plants from these crop and weed species and also horseweed (Canada horseweed, Conyza canadensis), waterhemp_RES1, (ALS & Triazine resistant common waterhemp, Amaranthus rudis), and waterhemp_RES2, (ALS & HPPD resistant common waterhemp, Amaranthus rudis) were planted in pots containing Redi-Earth® planting medium (Scotts Company, 14111 Scottslawn Road, Marysville, Ohio 43041) comprising spaghnum peat moss, vermiculite, wetting agent and starter nutrients were treated with postemergence applications of test chemicals formulated in the same manner. Plants ranged in height from 2 to 18 cm for postemergence treatments (1- to 4-leaf stage). Treated plants and controls were maintained in a greenhouse for 14 to 21 days, after which time all species were compared to controls and visually evaluated. Plant response ratings, summarized in Table E, are based on a scale of 0 to 100 where 0 is no effect and 100 is complete control. A dash (-) response means no test result.

crabgrass, naked = test: Test F preemergence; type: in vivo, Digitaria nuda; conditions: 21 days, scale 0 to 100
Summary of the method: (§1)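 Visual ratings from 0 (no effect) to 100 (complete control), scored against untreated controls after 21 days in the greenhouse. Test chemicals, formulated in a non-phytotoxic solvent blend with surfactant, were applied preemergence to seeds planted in loam soil mixed with sand.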

kochia = test: Test F preemergence; type: in vivo, Kochia scoparia; conditions: 21 days, scale 0 to 100
Summary of the method: as §1

nutsedge, purple = test: Test F preemergence; type: in vivo, Cyperus rotundus; conditions: 21 days, scale 0 to 100
Summary of the method: as §1

sowthistle = test: Test F preemergence; type: in vivo, Sonchus oleraceous; conditions: 21 days, scale 0 to 100
Excerpt: Seeds of plant species selected from bermudagrass (Cynodon dactylon), surinam grass (Brachiaria decumbens), large (Lg) crabgrass (Digitaria sanguinalis), crabgrass, naked (naked crabgrass, Digitaria nuda), foxtail, green (green foxtail, Setaria viridis), johnsongrass (Sorghum halepense), kochia (Kochia scoparia), morningglory (pitted morningglory, Ipomoea lacunosa), nutsedge, purple (purple nutsedge, Cyperus rotundus), ragweed (common ragweed, Ambrosia elatior), mustard, black (black mustard, Brassica nigra), guineagrass (Panicum maximum), dallisgrass (Paspalum dilatatum), barnyardgrass (Echinochloa crus-galli), sandbur (southern sandbur, Cenchrus echinatus), sowthistle (common sowthistle, Sonchus oleraceous), Italian ryegrass (Lolium multiflorum), signalgrass (broadleaf signalgrass, Brachiaria platyphylla), dayflower (Virginia (VA) dayflower, Commelina virginica), bluegrass (annual bluegrass, Poa annua), quackgrass (Elytrigia repens), mallow (common mallow, Malva sylvestris), buckwheat, wild (wild buckwheat, Polygonum convolvulus), leafy spurge (Euphorbia esula), chickweed (common chickweed, Stellaria media), wild poinsettia (Euphorbia heterophylla), and pigweed (Amaranthus retroflexus) were planted into a blend of loam soil and sand and treated preemergence with test chemicals formulated in a non-phytotoxic solvent mixture which included a surfactant.
Treated plants and controls were maintained in a greenhouse for 21 days, after which time all species were compared to controls and visually evaluated. Plant response ratings, summarized in Table F, are based on a scale of 0 to 100 where 0 is no effect and 100 is complete control. A dash (-) response means no test result.

[1] = Postemergence, 31 g ai/ha, scale 0 to 100
[2] = Postemergence, 62 g ai/ha, scale 0 to 100
[3] = Postemergence, 125 g ai/ha, scale 0 to 100
[4] = postemergence, 16 g ai/ha, scale 0 to 100, 0 no effect, 100 complete control

SMILES: Clc1cnc(Oc2cccc(Cl)c2-n2cc(I)cn2)nc1 [Compound 181]
- Plant response rating, Horseweed (horseweed; [1]): 0
- Plant response rating, Horseweed (horseweed; [2]): 5
- Plant response rating, Horseweed (horseweed; [3]): 5
- Plant response rating, Horseweed (horseweed; [4]): 0

SMILES: N#Cc1cccc(Oc2ncc(F)cn2)c1-n1cc(C(F)(F)F)cn1 [Compound 79, 3-[(5-fluoro-2-pyrimidinyl)oxy]-2-[4-(trifluoromethyl)-1H-pyrazol-1-yl]benzonitrile]
- Plant response rating, Horseweed (horseweed; [1]): 0
- Plant response rating, Horseweed (horseweed; [2]): 20
- Plant response rating, Horseweed (horseweed; [3]): 30
- Plant response rating, Horseweed (horseweed; [4]): 0
- Plant response rating, Crabgrass, Naked (crabgrass, naked; 16 g ai/ha): 100
- Plant response rating, Crabgrass, Naked (crabgrass, naked; 31 g ai/ha): 100
- Plant response rating, Crabgrass, Naked (crabgrass, naked; 62 g ai/ha): 100
- Plant response rating, Crabgrass, Naked (crabgrass, naked; 125 g ai/ha): 100
- Plant response rating, Crabgrass, Naked (crabgrass, naked; 250 g ai/ha): 100
- Plant response rating, Kochia (kochia; 16 g ai/ha): 100
- Plant response rating, Kochia (kochia; 31 g ai/ha): 100
- Plant response rating, Kochia (kochia; 62 g ai/ha): 100
- Plant response rating, Kochia (kochia; 125 g ai/ha): 100
- Plant response rating, Kochia (kochia; 250 g ai/ha): 100
- Plant response rating, Nutsedge, Purple (nutsedge, purple; 16 g ai/ha): 0
- Plant response rating, Nutsedge, Purple (nutsedge, purple; 31 g ai/ha): 10
- Plant response rating, Nutsedge, Purple (nutsedge, purple; 62 g ai/ha): 70
- Plant response rating, Nutsedge, Purple (nutsedge, purple; 125 g ai/ha): 70
- Plant response rating, Nutsedge, Purple (nutsedge, purple; 250 g ai/ha): 85
- Plant response rating, Sowthistle (sowthistle; 16 g ai/ha): 100
- Plant response rating, Sowthistle (sowthistle; 31 g ai/ha): 100
- Plant response rating, Sowthistle (sowthistle; 62 g ai/ha): 100
- Plant response rating, Sowthistle (sowthistle; 125 g ai/ha): 100
- Plant response rating, Sowthistle (sowthistle; 250 g ai/ha): 100
